Data published in patent US6545019B2, “Method of modulating microglial activation for the treatment of acute and chronic neurodegenerative disorders” (Bristol-Myers Squibb Company, priority 2000, dated 2003).
pIC50: −log10 of the molar value. “Also recorded” adds a separate entry of the source.

Tests used:
[1] = system: LPS activated rat microglia cells; assay: TNF-alpha release from LPS activated rat primary microglia (ELISA); type: cell-based; details: for TNF-alpha release: rat primary microglia, 100 ng/ml LPS, compound 1 hr before LPS, supernatant 24 hrs post-LPS
Experimental: (§1) Rat microglia were prepared from two day old rat pups. Pup brains were removed and the meninges were gently removed. Once sufficient amount of brains were collected, brains were minced with a blunt scissors (10 times) and transferred to a 15ml conical tube with a pasteur pipette and titurated 25 times. Dissociated cells were then centrifuged at 1000 RPM for 10 minutes (RT). The supernatant was removed and 2 mls of fresh media was added. The resultant cell suspension was titurated 10 times. Following titration the cell suspension was plated in a T175 cm^2 culture flasks at a density of 4 brains per flask in 25 mls. MEM media was used for the experiments, supplemented with 10% FBS, 100 i.u.penicillin, 100 i.u.streptomycin and L-Glutamine. Microglia were isolated on day 14 by shaking on an orbital rotation shaker. The purity of the cultures was 98-100% as determined by immunostaining with ED-40 antibody.
(§2) Endotoxin (LPS) at a concentration of a 100 ng/ml were used for activation of rat microglia cells. This concentration had previously shown to be effective in inducing TNF-alpha and Nitrite release. All assays were performed in 48 well plates (Becton Dickinson) at ˜2×10^5 cells or 0.5×10^5 per 1 ml per well in 10% MEM media. Microglia cells were pre-incubated 1 hr prior to LPS challenge with either vehicle (0.1%DMSO) or test compound in DMEM containing 10%FBS (microglia) or RPMI containing 10%FBS (THP-1 monocytes). Supernatants from LPS activated rat microglia were collected at 24 hrs post-LPS challenge.
Collected supernatants were assayed for TNF-alpha using a Pharmingen OPtEIA Rat (microglia).

[2] = system: LPS activated rat microglia cells; assay: Nitrite (NO) release from LPS activated rat primary microglia (Modified Griess Reagent); type: cell-based; details: 100 ng/ml LPS, compound 1 hr before LPS, supernatant 24 hrs post-LPS
Experimental: as §1, §2
Nitrite assay was performed in a 96 well plate using a Modified Griess Reagent (Sigma). In brief, a 100 ul of Modified Griess Reagent was added to a 100 ul of collected supernatant. Samples were read at a wavelength of 540nm. All values were calculated against a NaNO2 standard curve.

IκBα = assay: LPS mediated IκBα degradation in microglia (immunoblotting); type: cell-based, rat; details: 100 ng/ml LPS, 10μM ATFMK, 50μM L-655,238
Experimental: Immunoblotting was carried out as described previously (Parvathenani et al., 2000). Briefly 25μg of protein was fractionated on a 4-20% tris-glycine gel (NOVEX, Calif.) and transferred to PVDF membrane (NOVEX, Calif.). The membrane was probed with a polyclonal antibody specific for IκBα. To distinguish between the phosphorylated and non-phosphorylated forms of cPLA2, 50μg of protein was run on an 8% tris-glycine gel (Novex, Calif.) for 4.5 hours at 125V, transferred and probed with a monoclonal antibody specific for cPLA2.
Effects of cPLA2 and 5-LOX inhibitors on LPS mediated IκBα degradation. Microglia were treated with 100 ng/ml of LPS for various periods of time following which whole cell lysates were prepared and run on SDS-PAGE, transferred and probed with a IκBα antibody as mentioned in immunoblotting. (6A) 100 ng/ml LPS alone, (6B) LPS+10μM ATFMK, (6C) LPS+50μM L-655,238.

NF-κB (p65) = assay: LPS mediated NF-κB (p65) nuclear translocation in microglia (indirect immunofluorescence); type: cell-based, rat; details: 100 ng/ml LPS, 5 min, 10μM ATFMK, 50μM L-655,238
Experimental: Cells were washed once with PBS, fixed and permeabilized with ice cold methanol (100%) for 5 minutes and washed 3× in PBS for 10 min. The cover slips were blocked for 1 hour in 10% serum/PBS (serum derived from animal in which secondary antibody was generated), incubated for 2-3 hours in primary antibody solution (1:50 dilution in 1.5% serum/PBS) and washed 3× in PBS for 10 min. Secondary antibody linked to fluorescein was applied for one hour (1:100 dilution in 1.5% serum/PBS) and washed 3× in PBS for 10 min. If the nucleus was stained, the cells were incubated for 15 minutes with DAPI (1:10000) at 37° C. and washed. The coverslips were then mounted onto glass slides using mounting media and viewed under a fluorescence microscope.
Effects of cPLA2 and 5-LOX inhibitors on LPS mediated NF-κB translocation. Microglia were treated with 100 ng/ml of LPS for various periods of time following which p65 distribution was assessed by indirect immunofluorescence (7A) control, (7B) LPS-5 min., (7C) LPS+10μM ATFMK—5 min., (7D) LPS+50μM L-655,238—5 min. (7E) LPS+NDGA-20μM—5 min.

5-LOX = details: cited from earlier work
COX = details: cited from earlier work
IκBα phosphorylation = details: irreversible inhibitor; read-out: IC50, inhibition of IκBα phosphorylation; cited from earlier work

Row | Structure (SMILES) | TNF-alpha release [1] | nitrite (NO) release [2] | other results
1 | CC(C)Cc1ccc(C(C)C(=O)O)cc1 (centres unmarked) [Ibuprofen] | failed to produce any reduction in TNF-alpha release | – | –
2 | CCCCCC(O)c1ccc(Cc2cnc3ccccc3c2)cc1 (stereo not drawn) [para-REV5901, α-pentyl-4-(3-quinolinylmethyl)benzenemethanol] | dose dependently inhibited TNF-alpha release and nitrite to near control levels; also recorded: significantly inhibited TNF-alpha release | dose dependently inhibited TNF-alpha release and nitrite to near control levels; also recorded: significantly inhibited nitrite release | degradation of IκBα following LPS stimulation (IκBα): attenuated the degradation of IκBα; translocation of NF-κB into the nucleus (NF-κB (p65)): delayed the translocation of NF-κB into the nucleus; pIC50 (5-LOX): 7.00
3 | CS(=O)(=O)c1ccc(C2=C(c3ccccc3)C(=O)OC2)cc1 [rofecoxib] | failed to produce any reduction in TNF-alpha release | – | pro-inflammatory release on activated microglia [1]: no significant effect
4 | CC(Cc1ccc(O)c(O)c1)C(C)Cc1ccc(O)c(O)c1 (centres unmarked) [NDGA, nordihdroguaiaretic acid] | dose dependently inhibited TNF-alpha release and nitrite to near control levels; also recorded: significantly inhibited TNF-alpha release | dose dependently inhibited TNF-alpha release and nitrite to near control levels | pIC50 (5-LOX): […]; pIC50 (COX): 4.00
5 | CCCCC/C=C\C/C=C\C/C=C\C/C=C\CCCC(=O)C(F)(F)F [ATFMK, arachidonyltrifluoromethyl ketone] | significant dose-dependent inhibition; also recorded: significantly inhibited TNF-alpha release | significant dose-dependent inhibition; also recorded: significantly inhibited nitrite release | degradation of IκBα following LPS stimulation (IκBα): attenuated the degradation of IκBα; translocation of NF-κB into the nucleus (NF-κB (p65)): delayed the translocation of NF-κB into the nucleus
6 | Cc1ccc(-c2cc(C(F)(F)F)nn2-c2ccc(S(N)(=O)=O)cc2)cc1 [celecoxib] | – | – | pro-inflammatory release on activated microglia [1]: no significant effect
7 | CC(C)(C)c1ccc(S(=O)(=O)/C=C/C#N)cc1 [BAY 11-7085, (E)3-((4-t-Butylphenyl)sulfonyl)-2-propenenitrile] | inhibited LPS induced TNFα and NO release to control levels | inhibited LPS induced TNFα and NO release to control levels | pIC50 (IκBα phosphorylation): 5.00
8 | O=C(CCc1ccc(OCCS(=O)(=O)CCOC(c2ccc(Cl)cc2)c2ccc(Cl)cc2)cc1)C(F)(F)F [BMS 229724] | significant dose-dependent inhibition | significant dose-dependent inhibition | TNF-alpha release ([1]; listed as BMS-229724): significantly inhibited TNF-alpha release
